Key:
human GPR139 receptor [1] = biological target: T1, human GPR139 receptor (Homo sapiens, UniProt Q6DWJ6); assay: Measurement of GPR139 Activation Via Calcium Signaling (FLIPR, T-REx-CHO cells); assay type: cell-based; settings: T-REx-CHO cells stably expressing human GPR139, 11-point dose response, 10 μM maximum concentration, read-out: GPR139 Potency (pEC50) (converted)
T1 construct: expressed in transfected cells; host or cells: T-REx-CHO (Thermo Fisher Scientific), doxycycline-induced
T1 sequence (Q6DWJ6 1-353): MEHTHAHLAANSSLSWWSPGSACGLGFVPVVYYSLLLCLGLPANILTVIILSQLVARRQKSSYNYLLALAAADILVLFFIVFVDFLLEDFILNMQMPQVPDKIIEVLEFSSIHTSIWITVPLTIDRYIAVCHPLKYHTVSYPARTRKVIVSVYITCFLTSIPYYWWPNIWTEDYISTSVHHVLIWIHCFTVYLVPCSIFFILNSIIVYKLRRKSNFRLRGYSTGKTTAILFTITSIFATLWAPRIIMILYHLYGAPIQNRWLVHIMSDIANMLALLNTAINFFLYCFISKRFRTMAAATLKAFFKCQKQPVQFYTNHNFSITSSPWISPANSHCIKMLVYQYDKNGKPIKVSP
Outline: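 T-REx-CHO cells stably carrying human GPR139 under tetracycline control, induced with 2 μg/mL doxycycline for 17 h at 37 °C, loaded 40 min with Calcium 5 dye plus probenecid in HBSS/HEPES pH 7.4. Agonist added as 11-point series (10 μM top); fluorescence read 1 min; pEC50 from four-parameter fit.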

human GPR139 receptor [2] = biological target: T1, human GPR139 receptor; assay: GPR139 Competition Binding (membrane-based, tritium-labeled ligand); settings: T-REx-CHO membranes with human GPR139; 6.5 nM tritium-labeled ligand; 11-point curve, 30 μM maximum concentration; read-out: GPR139 Binding Affinity (pKi) (converted)
Description: OPR139 Competition Binding
This membrane-based assay measures the ability of compounds to competitively bind GPR139 in stably transfected TREx™-CHO membranes. To prepare the membranes, T-REx™-CHO (Thermo Fisher Scientific®) cells are stably expressed with human GPR139 receptor, whose expression is controlled by a tetracycline-inducible element. The cells are cultured in medium containing F-12K nutrient mixture-Kaighn's modification, 10% tetracycline-free FBS, Blasticidin S HCl (10 μg/mL) and Hygromycin B (200 μg/mL). GPR139 receptor expression is induced for 18 hours with 2 μg/mL doxycycline (Sigma D9891) in growth media. After addition of doxycycline, cells are harvested in PBS and pelleted by centrifugation for 5 minutes at 200×G. Liquid is aspirated off and cells are resuspended in ice cold lysis buffer (20 mM HEPES/5 mM EDTA pH 7.4/1× Roche® protease inhibitor). Samples are vortexed until homogenous and then placed on ice and homogenized using a Dounce homogenizer at 50% power (3 cycles, 10 strokes per cycle). Lysate is centrifuged at 4° C. for 10 minutes in a tabletop Sorvall® centrifuge at 2000×G. The supernatant is recovered and centrifuged in a Sorvall® ultracentrifuge at 35,000 rpm for 30 minutes at 4° C. The supernatant is discarded, and the remaining pellet resuspended in lysis buffer (20 mM HEPES/0.1 mM EGTA/Roche® protease inhibitor). Membrane protein concentration is determined using Thermo Fisher® BCA quantification kit and is aliquoted into microtubes. Tubes are snap frozen in liquid nitrogen and stored at −80° C. Prior to use, the membranes are removed from cold storage, thawed to room temperature, vortexed until homogenous and diluted in assay buffer (20 mM HEPES pH 7.3, 5 mM MgCl2, 1 mM CaCl2), 1× Thermo Scientific® Halt™ protease inhibitor (78429)).
The assay is run in 96-well, polypropylene, v-bottom plates (Greiner Bio-One® 651201). Test compound in DMSO is added to the wells of each plate (11-point dose response curve, 30 μM maximum concentration, 3-fold serial dilution). A fixed amount of tritium-labeled ligand, (S)-2-(2,3-dimethyl-7-oxothieno[2,3-d]pyridazin-6(7H)-yl)-N-(1-(4-methoxyphenyl-2-t)propan-2-yl)acetamide (Quotient Bioresearch) in assay buffer (6.5 nM assay concentration) is added to each well of the assay plate, which is then agitated on a plate shaker for 30 seconds. Next, a fixed amount of membranes in assay buffer (2 μg membranes) is added to each well of the assay plate, which is then spun for 30 seconds at 300 rpm in a tabletop Eppendorf centrifuge, and then incubated at room temperature for 20 minutes. Using a Tomtec harvester, the contents of the assay plate are transferred to Filtermat A (PerkinElmer® No. 1450-421) which prior to use is pre-soaked in 0.5% PEI (Sigma P3143) for 3 hours and dried at room temperature overnight. Following transfer, the Filtermat is washed 5 times with cold wash buffer (20 mM HEPES pH 7.3, 100 mM NaCl). The Filtermat is dried using a microwave oven and placed in a sample bag (PerkinElmer® No. 1450-432) with a scintillator sheet (PerkinElmer® No. 1450-411). The scintillator sheet is melted to the Filtermat using a heat block set to 65° C., placed in a MicroBeta® cartridge and read using a MicroBeta® scintillation counter. Binding curves are generated with a four-parameter logistic equation using GraphPad Prism® 6 and the inhibition constant Ki is reported as pKi.

| EC50 (human GPR139 receptor [1]) | Ki (human GPR139 receptor [2]) | SMILES |
| --- | --- | --- |
| ≥ 10000 nM | 19.5 nM | Cc1ccc([C@H](C)NC(=O)Cn2nc(C3CC3)c3cnn(-c4ccccc4)c3c2=O)c(F)c1 [Example 42, (S)-2-(4-cyclopropyl-7-oxo-1-phenyl-1,7-dihydro-6H-pyrazolo[3,4-d]pyridazin-6-yl)-N-(1-(2-fluoro-4-methylphenyl)ethyl)acetamide] |
| 708 nM | 89.1 nM | Cc1ccc([C@H](C)NC(=O)Cn2nc(C3CC3)c3cnn(-c4ccccc4)c3c2=O)cc1 [Example 43, (S)-2-(4-cyclopropyl-7-oxo-1-phenyl-1,7-dihydro-6H-pyrazolo[3,4-d]pyridazin-6-yl)-N-(1-(p-tolyl)ethyl)acetamide] |
| 3630 nM | 105 nM | C[C@H](NC(=O)Cn1nc(C2CC2)c2cnn(-c3ccccc3)c2c1=O)c1ccc(C(F)(F)F)cc1 [Example 44, (S)-2-(4-cyclopropyl-7-oxo-1-phenyl-1,7-dihydro-6H-pyrazolo[3,4-d]pyridazin-6-yl)-N-(1-(4-(trifluoromethyl)phenyl)ethyl)acetamide] |
| ≥ 10000 nM | 224 nM | C[C@H](NC(=O)Cn1nc(C2CC2)c2cnn(-c3ccccc3)c2c1=O)c1ccc(OC(F)(F)F)cc1 [Example 45, (S)-2-(4-cyclopropyl-7-oxo-1-phenyl-1,7-dihydro-6H-pyrazolo[3,4-d]pyridazin-6-yl)-N-(1-(4-(trifluoromethoxy)phenyl)ethyl)acetamide] |
| 37.2 nM | 162 nM | Cc1nn(C)c2cnn(CC(=O)N[C@@H](C)c3ccc(OC(F)(F)F)cc3)c(=O)c12 [Example 47, (S)-2-(1,3-dimethyl-4-oxo-1,4-dihydro-5H-pyrazolo[3,4-d]pyridazin-5-yl)-N-(1-(4-(trifluoromethoxy)phenyl)ethyl)acetamide] |
| 33.1 nM | 1910 nM | COc1ccc([C@H](C)NC(=O)Cn2ncc3c(c(C)nn3C)c2=O)cc1 [Example 48, (S)-2-(1,3-dimethyl-4-oxo-1,4-dihydro-5H-pyrazolo[3,4-d]pyridazin-5-yl)-N-(1-(4-methoxyphenyl)ethyl)acetamide] |
| 49 nM | 22.9 nM | Cc1ccc([C@H](C)NC(=O)Cn2ncc3c(c(C(C)C)nn3C)c2=O)c(F)c1 [Example 49, (S)—N-(1-(2-fluoro-4-methylphenyl)ethyl)-2-(3-isopropyl-1-methyl-4-oxo-1,4-dihydro-5H-pyrazolo[3,4-d]pyridazin-5-yl)acetamide] |
| 166 nM | 126 nM | CC(C)c1nn(C)c2cnn(CC(=O)N[C@@H](C)c3ccc(OC(F)(F)F)cc3)c(=O)c12 [Example 50, (S)-2-(3-isopropyl-1-methyl-4-oxo-1,4-dihydro-5H-pyrazolo[3,4-d]pyridazin-5-yl)-N-(1-(4-(trifluoromethoxy)phenyl)ethyl)acetamide] |
| 32.4 nM | 135 nM | Cc1ccc([C@H](C)NC(=O)Cn2ncc3c(c(C(C)C)nn3C)c2=O)cc1 [Example 51, (S)-2-(3-isopropyl-1-methyl-4-oxo-1,4-dihydro-5H-pyrazolo[3,4-d]pyridazin-5-yl)-N-(1-(p-tolyl)ethyl)acetamide] |
| 67.6 nM | 204 nM | CC(C)c1nn(C)c2cnn(CC(=O)N[C@@H](C)c3ccc(C(F)(F)F)cc3)c(=O)c12 [Example 52, (S)-2-(3-isopropyl-1-methyl-4-oxo-1,4-dihydro-5H-pyrazolo-[3,4-d]pyridazin-5-yl)-N-(1-(4-(trifluoromethyl)phenyl)ethyl)acetamide] |
| 55 nM | 1020 nM | COc1ccc([C@H](C)NC(=O)Cn2ncc3c(c(C(C)C)nn3C)c2=O)cc1 [Example 53, (S)-2-(3-isopropyl-1-methyl-4-oxo-1,4-dihydro-5H-pyrazolo[3,4-d]pyridazin-5-yl)-N-(1-(4-methoxyphenyl)ethyl)acetamide] |

The remaining lines, values behind:

| SMILES | EC50 (human GPR139 receptor [1]) | Ki (human GPR139 receptor [2]) |
| --- | --- | --- |
| Cc1ccc([C@H](C)NC(=O)Cn2ncc3c(cnn3C)c2=O)cc1 [Example 33, (S)-2-(1-methyl-4-oxo-1,4-dihydro-5H-pyrazolo[3,4-d]pyridazin-5-yl)-N-(1-(p-tolyl)ethyl)acetamide] | 66.1 nM | 5250 nM |
| C[C@H](NC(=O)Cn1ncc2c(cnn2C)c1=O)c1ccc(C(F)(F)F)cc1 [Example 34, (S)-2-(1-methyl-4-oxo-1,4-dihydro-5H-pyrazolo[3,4-d]pyridazin-5-yl)-N-(1-(4-(trifluoromethyl)phenyl)ethyl)acetamide] | 70.8 nM | 6030 nM |
| Cc1ccc([C@H](C)NC(=O)Cn2ncc3c(cnn3C)c2=O)c(F)c1 [Example 35, (S)—N-(1-(2-fluoro-4-methylphenyl)ethyl)-2-(1-methyl-4-oxo-1,4-dihydro-5H-pyrazolo[3,4-d]pyridazin-5-yl)acetamide] | 79.4 nM | 1020 nM |
| Cc1ccc([C@H](C)NC(=O)Cn2ncc3c(c(C)nn3C)c2=O)cc1 [Example 36, (S)-2-(1,3-dimethyl-4-oxo-1,4-dihydro-5H-pyrazolo[3,4-d]pyridazin-5-yl)-N-(1-(p-tolyl)ethyl)acetamide] | 38.9 nM | 251 nM |
| Cc1nn(C)c2cnn(CC(=O)N[C@@H](C)c3ccc(C(F)(F)F)cc3)c(=O)c12 [Example 37, (S)-2-(1,3-dimethyl-4-oxo-1,4-dihydro-5H-pyrazolo[3,4-d]pyridazin-5-yl)-N-(1-(4-(trifluoromethyl)phenyl)ethyl)acetamide] | 26.3 nM | 355 nM |
| Cc1ccc([C@H](C)NC(=O)Cn2ncc3c(c(C4CC4)nn3C)c2=O)cc1 [Example 38, (S)-2-(3-cyclopropyl-1-methyl-4-oxo-1,4-dihydro-5H-pyrazolo[3,4-d]pyridazin-5-yl)-N-(1-(p-tolyl)ethyl)acetamide] | 55 nM | 72.4 nM |
| Cc1ccc([C@H](C)NC(=O)Cn2nc(C)c3cnn(C)c3c2=O)cc1 [Example 39, (S)-2-(1,4-dimethyl-7-oxo-1,7-dihydro-6-pyrazolo[3,4-d]pyridazin-6-yl)-N-(1-(p-totyl)ethyl)acetamide] | 36.3 nM | 229 nM |
| Cc1nn(CC(=O)N[C@@H](C)c2ccc(C(F)(F)F)cc2)c(=O)c2c1cnn2C [Example 40, (S)-2-(1,4-dimethyl-7-oxo-1,7-dihydro-6H-pyrazolo[3,4-d]pyridazin-6-yl)-N-(1-(4-(trifluoromethyl)phenyl)ethyl)acetamide] | 33.1 nM | 251 nM |
| Cc1ccc([C@H](C)NC(=O)Cn2nc(C)c3cnn(C)c3c2=O)c(F)c1 [Example 41, (S)-2-(1,4-dimethyl-7-oxo-1,7-dihydro-6H-pyrazolo[3,4-d]pyridazin-6-yl)-N-(1-(2-fluoro-4-methylphenyl)ethyl)acetamide] | 34.7 nM | 74.1 nM |

Source: patent US12370192B2, “Azole-fused pyridazin-3(2H)-one derivatives” (TAKEDA PHARMACEUTICAL COMPANY LIMITED, priority 2019, dated 2025)
